Source: BindingDB's records for doi:10.1021/acsmedchemlett.0c00651 (Philipps University, 2021)
pKi: −log10 of the molar value.

Key:
Plasminogen = Plasminogen (Homo sapiens, UniProt P00747); test: Inhibition pf human plasmin using Mes-Darg-Phe-Arg-AMC as substrate by fluorescence assay
Prothrombin = Prothrombin (Bos taurus, UniProt P00735); test: Inhibition of bovine thrombin using Tos-Gly-Pro-Arg-AMC as substrate by fluorescence assay
Coagulation factor X = Coagulation factor X (Homo sapiens, UniProt P00742); test: Inhibition of human factor Xa using Mes-Darg-Pro-Arg-AMC as flurogenic substrate by fluorescence assay
Chain of Coagulation factor X (P00742 41-179 limits assumed): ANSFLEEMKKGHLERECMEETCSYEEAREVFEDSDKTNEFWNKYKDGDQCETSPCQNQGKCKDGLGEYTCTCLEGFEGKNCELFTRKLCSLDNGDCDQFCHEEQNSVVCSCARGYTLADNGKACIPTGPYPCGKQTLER
Chain of Coagulation factor X (P00742 235-488 limits assumed): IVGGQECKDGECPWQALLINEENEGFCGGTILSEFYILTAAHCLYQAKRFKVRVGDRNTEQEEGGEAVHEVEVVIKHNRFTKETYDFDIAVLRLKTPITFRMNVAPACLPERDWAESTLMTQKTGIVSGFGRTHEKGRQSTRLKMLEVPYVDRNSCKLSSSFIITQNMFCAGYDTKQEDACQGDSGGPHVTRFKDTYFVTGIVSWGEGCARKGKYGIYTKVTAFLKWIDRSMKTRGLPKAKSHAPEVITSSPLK

Measured: pKi

Chain of Plasminogen (P00747 97-580 limits assumed): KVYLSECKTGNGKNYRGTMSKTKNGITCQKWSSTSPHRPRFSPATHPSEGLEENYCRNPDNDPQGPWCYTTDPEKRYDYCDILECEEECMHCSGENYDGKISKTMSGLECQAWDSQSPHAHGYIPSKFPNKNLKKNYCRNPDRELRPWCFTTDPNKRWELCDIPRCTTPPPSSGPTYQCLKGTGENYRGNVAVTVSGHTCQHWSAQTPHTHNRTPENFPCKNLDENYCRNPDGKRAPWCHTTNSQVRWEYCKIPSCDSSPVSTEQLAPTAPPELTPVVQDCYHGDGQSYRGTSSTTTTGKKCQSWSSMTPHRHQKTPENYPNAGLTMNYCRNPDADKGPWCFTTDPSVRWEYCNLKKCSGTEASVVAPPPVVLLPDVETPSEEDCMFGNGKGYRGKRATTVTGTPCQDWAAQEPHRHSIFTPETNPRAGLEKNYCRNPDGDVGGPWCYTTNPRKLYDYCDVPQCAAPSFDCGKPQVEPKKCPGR
Chain of Plasminogen (P00747 581-810 limits assumed): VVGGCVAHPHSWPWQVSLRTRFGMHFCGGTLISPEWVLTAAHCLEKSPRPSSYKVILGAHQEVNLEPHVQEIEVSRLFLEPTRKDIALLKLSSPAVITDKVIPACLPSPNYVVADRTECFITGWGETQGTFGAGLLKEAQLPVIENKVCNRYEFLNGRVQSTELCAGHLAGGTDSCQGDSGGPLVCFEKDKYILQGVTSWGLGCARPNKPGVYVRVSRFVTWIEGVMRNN

CC(C)(C)[C@H](NC(=O)[C@H](CCONC(=N)N)NC(=O)Cc1ccc(CNC(=N)N)cc1)C(=O)N[C@@H](CCONC(=N)N)C(=O)NCc1ccc(C(=N)N)cc1
< 5.52: all assays above
